For one assay, the target named is T1, Pim-1 (Homo sapiens, UniProt P11309).
T1 construct: His6-labelled recombinant full-length human Pim-1, Pim-2 or Pim-3 protein; His6; made in house
Kind of assay: TR-FRET assay, Pim-1 kinase (phosphorylation of Bad Ser112). It is filed as biochemical. The following applies: TR-FRET; ATP 40 μM; read-out: IC50 Pim1. An outline of the steps:
(§1)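 Recombinant His6-tagged full-length human Pim-1, Pim-2 or Pim-3 phosphorylates His6-tagged full-length human Bad at 40 μM ATP (apparent KM). Phospho-Ser112 is detected by TR-FRET between Eu-labelled anti-phosphoBad and APC-labelled anti-His6 (665/615 nm ratio); 10-point duplicate series, top typically 30 μM, IC50 from 4-parameter logistic fit.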
For orientation: In TR-FRET formats the signal depends on donor and acceptor labels being close together.

In another assay the target is PLK1 (Homo sapiens, UniProt P53350). The assay is described as follows: PLK1 biochemical inhibition.
Chain of PLK1 (P53350 whole entry, species assumed): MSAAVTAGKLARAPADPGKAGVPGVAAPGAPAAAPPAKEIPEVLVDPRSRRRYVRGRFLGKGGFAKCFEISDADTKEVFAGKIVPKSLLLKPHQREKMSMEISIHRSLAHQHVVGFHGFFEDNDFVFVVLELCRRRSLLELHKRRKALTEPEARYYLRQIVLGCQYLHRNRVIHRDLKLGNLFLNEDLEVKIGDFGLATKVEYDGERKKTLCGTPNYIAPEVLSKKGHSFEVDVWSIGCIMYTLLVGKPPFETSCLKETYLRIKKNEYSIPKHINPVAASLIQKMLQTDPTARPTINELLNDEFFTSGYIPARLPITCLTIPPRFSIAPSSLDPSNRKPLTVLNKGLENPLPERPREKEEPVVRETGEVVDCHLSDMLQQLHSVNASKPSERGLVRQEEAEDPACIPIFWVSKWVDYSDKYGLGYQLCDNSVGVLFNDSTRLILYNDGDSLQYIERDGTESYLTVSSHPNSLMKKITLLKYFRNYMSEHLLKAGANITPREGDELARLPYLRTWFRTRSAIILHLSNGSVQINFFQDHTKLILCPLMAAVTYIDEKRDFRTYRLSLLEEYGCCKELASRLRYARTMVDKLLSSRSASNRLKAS
The next assay deals with T2, Pim-2 (Homo sapiens, UniProt Q9P1W9).
T2 construct: His6-labelled recombinant full-length human Pim-1, Pim-2 or Pim-3 protein; His6; made in house
T2 sequence (Q9P1W9 whole entry): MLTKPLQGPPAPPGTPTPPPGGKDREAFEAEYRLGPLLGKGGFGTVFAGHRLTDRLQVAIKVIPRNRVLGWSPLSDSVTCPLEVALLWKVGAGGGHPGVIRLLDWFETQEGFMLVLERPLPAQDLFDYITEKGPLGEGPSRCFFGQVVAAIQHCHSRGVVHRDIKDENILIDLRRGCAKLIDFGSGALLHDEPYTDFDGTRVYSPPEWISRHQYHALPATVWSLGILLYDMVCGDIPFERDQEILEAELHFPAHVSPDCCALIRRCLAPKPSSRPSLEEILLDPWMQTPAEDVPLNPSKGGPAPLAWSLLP
Kind of assay: TR-FRET assay, Pim-2 kinase (phosphorylation of Bad Ser112). It is filed as biochemical. The following applies: TR-FRET; ATP 40 μM; read-out: IC50 Pim2. An outline of the steps:
as §1

The next assay concerns the target T3, Pim-3 (Homo sapiens, UniProt Q86V86).
T3 construct: His6-labelled recombinant full-length human Pim-1, Pim-2 or Pim-3 protein; His6; made in house
Kind of assay: TR-FRET assay, Pim-3 kinase (phosphorylation of Bad Ser112). It is filed as biochemical. The following applies: TR-FRET; ATP 40 μM; read-out: IC50 Pim3. A digest of the protocol:
as §1

Molecules are shown by their SMILES. Some results are limits rather than exact numbers.

As a reminder, the IC50 is the concentration at which inhibition is half-maximal.

T1 sequence (P11309 whole entry): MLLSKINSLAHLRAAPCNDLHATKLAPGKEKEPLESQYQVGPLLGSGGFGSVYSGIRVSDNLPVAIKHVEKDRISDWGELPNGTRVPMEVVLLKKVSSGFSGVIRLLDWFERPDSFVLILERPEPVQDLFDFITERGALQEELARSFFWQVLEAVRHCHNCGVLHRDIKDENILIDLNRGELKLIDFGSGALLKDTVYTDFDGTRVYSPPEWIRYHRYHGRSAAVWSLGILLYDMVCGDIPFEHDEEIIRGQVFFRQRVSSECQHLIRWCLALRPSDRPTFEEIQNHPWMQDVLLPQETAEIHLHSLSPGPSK

Regarding `CCN(CC)CCCN1CCN(c2c(F)cnc3[nH]c4cnc(-c5cccnc5)cc4c23)CC1` [Example 89, N,N-diethyl-3-{4-[3-fluoro-6-(pyrid-3-yl)-9H-pyrrolo[2,3-b:5,4-c′]dipyrid-4-yl]piperazin-1-yl}propan-1-amine], the IC50 on Pim-1 lay in the range of 1 to 100 nM; at PLK1, 1000 to 5000 nM; on Pim-2, 1000 to 5000 nM; at Pim-3, 100 to 1000 nM.
For the compound `Oc1ccc(-c2c(F)cnc3[nH]c4cnc(-c5cccnc5)cc4c23)cc1` [Example 95, 4-[3-fluoro-6-(pyrid-3-yl)-9H-pyrrolo[2,3-b:5,4-c′]dipyrid-4-yl]phenol], the IC50 on Pim-1 lay within 1 to 100 nM; on PLK1, 1 to 100 nM; on Pim-2 it was 100 to 1000 nM; on Pim-3, 100 to 1000 nM.
In the case of `Fc1cnc2[nH]c3cnc(-c4cccnc4)cc3c2c1-c1ccc(OCCN2CCOCC2)cc1` [Example 99, 3-fluoro-4-{4-[2-(morpholin-4-yl)ethoxy]phenyl}-6-(pyrid-3-yl)-9H-pyrrolo[2,3-b:5,4-c′]dipyridine], the IC50 on Pim-1 was 1 to 100 nM; against PLK1, 100 to 1000 nM; at Pim-2, 1000 to 5000 nM; at Pim-3, 100 to 1000 nM.
As to `OC(COc1ccc(-c2c(F)cnc3[nH]c4cnc(-c5cccnc5)cc4c23)cc1)CN1CCOCC1` (centres unmarked) [Example 101, 1-{4-[3-fluoro-6-(pyrid-3-yl)-9H-pyrrolo[2,3-b:5,4-c′]dipyrid-4-yl]phenoxy}-3-(morpholin-4-yl)propan-2-ol], the half-maximal inhibitory concentration (IC50) fell in the range of 1 to 100 nM at Pim-1, 1 to 100 nM against PLK1, 100 to 1000 nM at Pim-2 and 1 to 100 nM on Pim-3.
In the case of `CCCNc1cnc2[nH]c3cnc(-c4cccnc4)cc3c2c1` [Example 110, N-propyl-6-(pyrid-3-yl)-9H-pyrrolo[2,3-b:5,4-c′]dipyrid-3-amine], the half-inhibitory concentration (IC50) fell in the range of 1 to 100 nM at Pim-1, 1000 to 5000 nM against PLK1, 1000 to 5000 nM on Pim-2 and 100 to 1000 nM on Pim-3.
On to `CCOc1cnc2[nH]c3cnc(-c4cccnc4)cc3c2c1` [Example 112, 3-ethoxy-6-(pyrid-3-yl)-9H-pyrrolo[2,3-b:5,4-c′]dipyridine], for which the IC50 at Pim-1 fell in the range of 1 to 100 nM; at PLK1, 100 to 1000 nM; on Pim-2, 100 to 1000 nM; at Pim-3, 1 to 100 nM.
As for `COCCOc1cnc2[nH]c3cnc(-c4cccnc4)cc3c2c1` [Example 113, 3-(2-methoxyethoxy)-6-(pyrid-3-yl)-9H-pyrrolo[2,3-b:5,4-c′]dipyridine], the half-maximal inhibitory concentration (IC50) on Pim-1 fell in the range of 1 to 100 nM; at PLK1, 1000 to 5000 nM; at Pim-2, 1000 to 5000 nM; at Pim-3, 1 to 100 nM.
Consider `c1cncc(-c2cc3c(cn2)[nH]c2ncc(-c4cnn(CCN5CCOCC5)c4)cc23)c1` [Example 115, 3-{1-[2-(morpholin-4-yl)ethyl]-1H-pyrazol-4-yl}-6-(pyrid-3-yl)-9H-pyrrolo[2,3-b:5,4-c′]dipyridine], for which the IC50 is 1 to 100 nM at Pim-1, 1000 to 5000 nM against PLK1, 1000 to 5000 nM at Pim-2 and 1 to 100 nM on Pim-3.
For `Cn1ccc(-c2cnc3[nH]c4cnc(-c5cccnc5)cc4c3c2)n1` [Example 116, 3-(1-methyl-1H-pyrazol-3-yl)-6-(pyrid-3-yl)-9H-pyrrolo[2,3-b:5,4-c′]dipyridine], the IC50 was 1 to 100 nM at Pim-1, 1000 to 5000 nM against PLK1, > 5000 nM at Pim-2 and 1 to 100 nM at Pim-3.
As for `OCc1cccc(-c2cnc3[nH]c4cnc(-c5cccnc5)cc4c3c2)c1` [Example 118, {3-[6-(pyrid-3-yl)-9H-pyrrolo-[2,3-b:5,4-c′]-dipyrid-3-yl]-phenyl}methanol], the half-maximal inhibitory concentration (IC50) at Pim-1 lay in the range of 1 to 100 nM; at PLK1, 100 to 1000 nM; on Pim-2 it was 100 to 1000 nM; on Pim-3, 1 to 100 nM.
Regarding `c1cncc(-c2cc3c(cn2)[nH]c2ncc(-c4ccc(N5CCOCC5)cc4)cc23)c1` [Example 121, 3-[4-(morpholin-4-yl)phenyl]-6-(pyrid-3-yl)-9H-pyrrolo[2,3-b:5,4-c′]-dipyridine], the IC50 lay within 1 to 100 nM on Pim-1, 1000 to 5000 nM against PLK1, 1000 to 5000 nM on Pim-2 and 1 to 100 nM on Pim-3.

These data come from patent US20110178053A1, “AZACARBOLINE DERIVATIVES, PREPARATION METHOD THEREOF AND THERAPEUTIC USE OF SAME” (SANOFI-AVENTIS, priority 2008, published 2011).
